Assay results: patent publication US8802597B2, “Herbicidal pyrimidines” (E I du Pont de Nemours and Company, priority 2003, dated 2014)

Experiments:
Type in all cases: in vivo
[1] = system: barnyardgrass (Echinochloa crus-galli); assay: Test A pre/postemergence
How it was run: (§1)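 Ratings: 0 = no effect, 100 = complete control, assessed visually about ten days post-treatment in a greenhouse. Applications: soil-directed preemergence spray and postemergence spray on 1- to 2-leaf plants, both using a surfactant-containing non-phytotoxic solvent formulation.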

[2] = system: velvetleaf (Abutilon theophrasti); assay: Test A pre/postemergence
How it was run: as §1

[3] = system: morningglory (Ipomoea spp.); assay: Test A pre/postemergence
How it was run: as §1

[4] = system: giant foxtail (Setaria faberi); assay: Test A pre/postemergence
How it was run: as §1

[5] = system: redroot pigweed (Amaranthus retroflexus); assay: Test A pre/postemergence
How it was run: as §1

[6] = system: crabgrass (Digitaria sanguinalis); assay: Test A pre/postemergence
How it was run: as §1

[7] = system: purple redstem (Ammannia coccinea); assay: Test E flooded paddy water application; settings: Flood, 21 days, scale 0 to 100 (0 no effect, 100 complete control); for Plant response rating, Redstem: 16 g ai/ha
How it was run: (§2)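 Greenhouse pots of Tama silt loam with weeds and rice at 2.0–2.5-leaf stage, flooded to 3 cm; compounds applied directly into paddy water, depth maintained. Visual rating versus untreated controls after 21 days, 0 (no effect) to 100 (complete control); 29.5/26.7 °C, 16-h photoperiod.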

[8] = system: ducksalad (Heteranthera limosa); assay: Test E flooded paddy water application; settings: Flood, 21 days, scale 0 to 100 (0 no effect, 100 complete control); for Plant response rating, Ducksalad: 16 g ai/ha
How it was run: as §2

[9] = system: water seeded rice seedlings (Oryza sativa cv. ‘Japonica-M202’); assay: Test E flooded paddy water application; settings: Flood, 21 days, scale 0 to 100 (0 no effect, 100 complete control); for Plant response rating, Rice, Water Seeded: 16 g ai/ha
How it was run: as §2

[10] = system: rice flatsedge (Cyperus iria); assay: Test E flooded paddy water application; settings: Flood, 21 days, scale 0 to 100 (0 no effect, 100 complete control); for Plant response rating, Flatsedge, Rice: 16 g ai/ha
How it was run: as §2

[11] = system: early watergrass (Echinochloa oryzoides); assay: Test E flooded paddy water application; settings: Flood, 21 days, scale 0 to 100 (0 no effect, 100 complete control); for Plant response rating, Watergrass, Early: 16 g ai/ha
How it was run: as §2

[12] = system: barnyardgrass (Echinochloa crus-galli); assay: Test E flooded paddy water application; settings: Flood, 21 days, scale 0 to 100 (0 no effect, 100 complete control); for Plant response rating, Barnyardgrass: 16 g ai/ha
How it was run: as §2

[13] = system: bearded (brdd.) sprangletop (Leptochloa fusca ssp. fascicularis); assay: Test E flooded paddy water application; settings: Flood, 21 days, scale 0 to 100 (0 no effect, 100 complete control); for Plant response rating, Sprangletop, Brdd.: 16 g ai/ha
How it was run: as §2

[14] = system: late watergrass (Echinochloa oryzicola); assay: Test E flooded paddy water application; settings: Flood, 21 days, scale 0 to 100 (0 no effect, 100 complete control); for Plant response rating, Watergrass, Late: 16 g ai/ha
How it was run: as §2

[15] = system: smallflower umbrella sedge (Cyperus difformis); assay: Test E flooded paddy water application; settings: Flood, 21 days, scale 0 to 100 (0 no effect, 100 complete control); for Plant response rating, Sedge, Umbrella: 16 g ai/ha
How it was run: as §2

[16] = system: transplanted rice seedlings (Oryza sativa cv. ‘Japonica-M202’); assay: Test E flooded paddy water application; settings: Flood, 21 days, scale 0 to 100 (0 no effect, 100 complete control); for Plant response rating, Rice, Transplanted: 16 g ai/ha
How it was run: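 Response scored visually on a 0–100 scale (100 = complete control) at 21 days against untreated pots. Treatment was into paddy water 3 cm deep over silt loam, with plants at the 2.0–2.5-leaf stage, grown under 16-h light at 29.5/26.7 °C day/night.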

[17] = system: junglerice (Echinochloa colona); assay: Test E flooded paddy water application; settings: Flood, 21 days, scale 0 to 100 (0 no effect, 100 complete control); for Plant response rating, Junglerice: 16 g ai/ha
How it was run: as §2

[18] = Postemergence, 125 g ai/ha, 0 to 100 scale (0 no effect, 100 complete control)
[19] = Postemergence, 500 g ai/ha, 0 to 100 scale (0 no effect, 100 complete control)
[20] = Preemergence, 125 g ai/ha, 0 to 100 scale where 0 is no effect and 100 is complete control, approximately ten days
[21] = Preemergence, 500 g ai/ha, 0 to 100 scale where 0 is no effect and 100 is complete control, approximately ten days

CCOC(=O)c1nc(-c2ccc(Cl)c(Cl)c2)nc(N)c1Cl [Compound 73]
90: Redstem plant response rating ([7]; 64 g ai/ha) | Barnyardgrass plant response rating ([12]; 125 g ai/ha)
35: Plant response rating, Velvetleaf [2, 20] | Plant response rating, Crabgrass [6, 19] | Plant response rating, Crabgrass [6, 21] | Sedge, Umbrella plant response rating ([15]; 125 g ai/ha)
15: Plant response rating, Foxtail, Giant [4, 18] | Plant response rating, Foxtail, Giant [4, 21] | Plant response rating, Pigweed [5, 20] | Plant response rating, Crabgrass [6, 18]
45: Plant response rating, Foxtail, Giant [4, 19] | Flatsedge, Rice plant response rating ([10]; 250 g ai/ha)
70: Plant response rating, Velvetleaf [2, 18] | Sprangletop, Brdd. plant response rating ([13]; 250 g ai/ha)
40: Plant response rating, Velvetleaf [2, 21]
30: Plant response rating, Barnyardgrass [1, 21]
5: Plant response rating, Barnyardgrass [1, 19] | Plant response rating, Barnyardgrass [1, 20] | Plant response rating, Crabgrass [6, 20]
20: Watergrass, Late plant response rating ([14]; 250 g ai/ha)
0: Plant response rating, Barnyardgrass [1, 18] | Plant response rating, Morningglory [3, 20] | Plant response rating, Morningglory [3, 21] | Plant response rating, Foxtail, Giant [4, 20] | Redstem plant response rating ([7]; 32 g ai/ha) | Plant response rating, Redstem [7] | Rice, Water Seeded plant response rating ([9]; 32 g ai/ha) | Rice, Water Seeded plant response rating ([9]; 64 g ai/ha) | Rice, Water Seeded plant response rating ([9]; 125 g ai/ha) | Rice, Water Seeded plant response rating ([9]; 250 g ai/ha) | Plant response rating, Rice, Water Seeded [9] | Flatsedge, Rice plant response rating ([10]; 32 g ai/ha) | Flatsedge, Rice plant response rating ([10]; 64 g ai/ha) | Plant response rating, Flatsedge, Rice [10] | Watergrass, Early plant response rating ([11]; 32 g ai/ha) | Watergrass, Early plant response rating ([11]; 64 g ai/ha) | Watergrass, Early plant response rating ([11]; 125 g ai/ha) | Watergrass, Early plant response rating ([11]; 250 g ai/ha) | Plant response rating, Watergrass, Early [11] | Barnyardgrass plant response rating ([12]; 64 g ai/ha) | Plant response rating, Barnyardgrass [12] | Sprangletop, Brdd. plant response rating ([13]; 32 g ai/ha) | Sprangletop, Brdd. plant response rating ([13]; 64 g ai/ha) | Plant response rating, Sprangletop, Brdd. [13] | Watergrass, Late plant response rating ([14]; 32 g ai/ha) | Watergrass, Late plant response rating ([14]; 64 g ai/ha) | Watergrass, Late plant response rating ([14]; 125 g ai/ha) | Plant response rating, Watergrass, Late [14] | Sedge, Umbrella plant response rating ([15]; 32 g ai/ha) | Sedge, Umbrella plant response rating ([15]; 64 g ai/ha) | Plant response rating, Sedge, Umbrella [15] | Rice, Transplanted plant response rating ([16]; 32 g ai/ha) | Rice, Transplanted plant response rating ([16]; 64 g ai/ha) | Rice, Transplanted plant response rating ([16]; 125 g ai/ha) | Rice, Transplanted plant response rating ([16]; 250 g ai/ha) | Plant response rating, Rice, Transplanted [16] | Junglerice plant response rating ([17]; 32 g ai/ha) | Junglerice plant response rating ([17]; 64 g ai/ha) | Junglerice plant response rating ([17]; 125 g ai/ha) | Junglerice plant response rating ([17]; 250 g ai/ha) | Plant response rating, Junglerice [17]
85: Sedge, Umbrella plant response rating ([15]; 250 g ai/ha)
75: Plant response rating, Velvetleaf [2, 19] | Plant response rating, Pigweed [5, 18] | Plant response rating, Ducksalad [8]
65: Plant response rating, Morningglory [3, 19]
50: Plant response rating, Morningglory [3, 18] | Sprangletop, Brdd. plant response rating ([13]; 125 g ai/ha)
60: Plant response rating, Pigweed [5, 21]
100: Redstem plant response rating ([7]; 125 g ai/ha) | Redstem plant response rating ([7]; 250 g ai/ha) | Ducksalad plant response rating ([8]; 32 g ai/ha) | Ducksalad plant response rating ([8]; 64 g ai/ha) | Ducksalad plant response rating ([8]; 125 g ai/ha) | Ducksalad plant response rating ([8]; 250 g ai/ha) | Barnyardgrass plant response rating ([12]; 250 g ai/ha)
80: Plant response rating, Pigweed [5, 19]

CCOC(=O)c1nc(-c2ccc(Cl)cc2Cl)nc(N)c1Br [Compound 67]
100: Ducksalad plant response rating ([8]; 32 g ai/ha) | Ducksalad plant response rating ([8]; 64 g ai/ha) | Ducksalad plant response rating ([8]; 125 g ai/ha) | Ducksalad plant response rating ([8]; 250 g ai/ha)
70: Sedge, Umbrella plant response rating ([15]; 250 g ai/ha)
30: Plant response rating, Foxtail, Giant [4, 21] | Plant response rating, Crabgrass [6, 21] | Flatsedge, Rice plant response rating ([10]; 64 g ai/ha) | Sprangletop, Brdd. plant response rating ([13]; 125 g ai/ha) | Sprangletop, Brdd. plant response rating ([13]; 250 g ai/ha) | Junglerice plant response rating ([17]; 125 g ai/ha)
65: Plant response rating, Velvetleaf [2, 18] | Junglerice plant response rating ([17]; 250 g ai/ha)
50: Plant response rating, Morningglory [3, 18]
85: Redstem plant response rating ([7]; 250 g ai/ha) | Plant response rating, Ducksalad [8]
40: Plant response rating, Velvetleaf [2, 21] | Barnyardgrass plant response rating ([12]; 125 g ai/ha) | Barnyardgrass plant response rating ([12]; 250 g ai/ha) | Sedge, Umbrella plant response rating ([15]; 125 g ai/ha)
60: Plant response rating, Morningglory [3, 19] | Flatsedge, Rice plant response rating ([10]; 125 g ai/ha) | Flatsedge, Rice plant response rating ([10]; 250 g ai/ha)
75: Plant response rating, Velvetleaf [2, 19] | Plant response rating, Pigweed [5, 21]
5: Plant response rating, Crabgrass [6, 18] | Plant response rating, Crabgrass [6, 19]
0: Plant response rating, Barnyardgrass [1, 18] | Plant response rating, Barnyardgrass [1, 19] | Plant response rating, Barnyardgrass [1, 20] | Plant response rating, Barnyardgrass [1, 21] | Plant response rating, Morningglory [3, 20] | Plant response rating, Morningglory [3, 21] | Plant response rating, Foxtail, Giant [4, 18] | Plant response rating, Foxtail, Giant [4, 19] | Plant response rating, Foxtail, Giant [4, 20] | Plant response rating, Crabgrass [6, 20] | Redstem plant response rating ([7]; 32 g ai/ha) | Redstem plant response rating ([7]; 64 g ai/ha) | Redstem plant response rating ([7]; 125 g ai/ha) | Plant response rating, Redstem [7] | Rice, Water Seeded plant response rating ([9]; 32 g ai/ha) | Rice, Water Seeded plant response rating ([9]; 64 g ai/ha) | Rice, Water Seeded plant response rating ([9]; 125 g ai/ha) | Rice, Water Seeded plant response rating ([9]; 250 g ai/ha) | Plant response rating, Rice, Water Seeded [9] | Flatsedge, Rice plant response rating ([10]; 32 g ai/ha) | Plant response rating, Flatsedge, Rice [10] | Watergrass, Early plant response rating ([11]; 32 g ai/ha) | Watergrass, Early plant response rating ([11]; 64 g ai/ha) | Watergrass, Early plant response rating ([11]; 125 g ai/ha) | Watergrass, Early plant response rating ([11]; 250 g ai/ha) | Plant response rating, Watergrass, Early [11] | Barnyardgrass plant response rating ([12]; 32 g ai/ha) | Barnyardgrass plant response rating ([12]; 64 g ai/ha) | Plant response rating, Barnyardgrass [12] | Sprangletop, Brdd. plant response rating ([13]; 32 g ai/ha) | Sprangletop, Brdd. plant response rating ([13]; 64 g ai/ha) | Plant response rating, Sprangletop, Brdd. [13] | Watergrass, Late plant response rating ([14]; 32 g ai/ha) | Watergrass, Late plant response rating ([14]; 64 g ai/ha) | Watergrass, Late plant response rating ([14]; 125 g ai/ha) | Watergrass, Late plant response rating ([14]; 250 g ai/ha) | Plant response rating, Watergrass, Late [14] | Sedge, Umbrella plant response rating ([15]; 32 g ai/ha) | Sedge, Umbrella plant response rating ([15]; 64 g ai/ha) | Plant response rating, Sedge, Umbrella [15] | Rice, Transplanted plant response rating ([16]; 32 g ai/ha) | Rice, Transplanted plant response rating ([16]; 64 g ai/ha) | Rice, Transplanted plant response rating ([16]; 125 g ai/ha) | Rice, Transplanted plant response rating ([16]; 250 g ai/ha) | Plant response rating, Rice, Transplanted [16] | Junglerice plant response rating ([17]; 32 g ai/ha) | Junglerice plant response rating ([17]; 64 g ai/ha) | Plant response rating, Junglerice [17]
90: Plant response rating, Pigweed [5, 18] | Plant response rating, Pigweed [5, 19]
10: Plant response rating, Velvetleaf [2, 20] | Plant response rating, Pigweed [5, 20]
